Measured values published in patent US20260263454A1, “USES OF A CHECKPOINT KINASE 1 (CHK1) INHIBITOR” (Boundless Bio, Inc., priority 2023, published 2026).

How the values were obtained:
[1] = test system: ecDNA+ FGFR2 amplified SNU-16 CDX tumor model; test: Anti-tumor and PD activity in ecDNA+ FGFR2 amplified SNU-16 CDX model, first study; format: in vivo, female SCID beige mice
Excerpt: (§1) Tumor volume (mm^3) data are shown as mean z SEM for each treatment group. […] PO: orally, mpk: mg/kg, QD: once per day, Q2D: once every other day.

[2] = test system: ecDNA+ FGFR2 amplified SNU-16 CDX tumor model; test: Durability of anti-tumor response in SNU-16 CDX model, subsequent study; format: in vivo, Female BALB/c nude mice; conditions: single agents vs vehicle: Compound 1 50 mg/kg PO Q2D, infigratinib 15 mg/kg PO QD
Excerpt: as §1

[3] = test system: ecDNA+ CDK4 amplified SJSA-1 CDX tumor model; test: Anti-tumor activity in ecDNA+ CDK4 amplified osteosarcoma SJSA-1 CDX model; format: in vivo, Female Hsd:Athymic Nude-Foxnlnu mice; conditions: vs vehicle
Excerpt: Tumor volume (mm^3) data are shown as mean±SEM for each treatment group. […] PO: orally, QD: once every day, Q2D: once every other day.

Structure (SMILES)	mean % ΔTGI ([1]; Day 12 vs vehicle, single agents: Compound 1 100 mg/kg PO Q2D, infigratinib 15 mg/kg PO QD) [%]	antitumor activity (in words) ([1]; infigratinib 15 mg/kg PO QD alone or with Compound 1 PO Q2D)	tumor FGFR2 gene copy number (qPCR) ([1]; tumors treated for 12 days, infigratinib 15 mg/kg PO QD alone or with Compound 1 25, 50, 100 mg/kg PO Q2D)	mean % ΔTGI [2] [%]	mean % ΔTGI ([3]; single agent 20 mg/kg PO QD, Study 2 (FIG. 3B)) [%]	mean % ΔTGI ([3]; single agent 50 mg/kg PO QD, Study 1 (FIG. 3A)) [%]
CCN1CCN(c2ccc(Nc3cc(N(C)C(=O)Nc4c(Cl)c(OC)cc(OC)c4Cl)ncn3)cc2)CC1 [infigratinib]	97.6	tumors resumed growth	concomitant increase in FGFR2 gene copy number	65.4	–	–
CC(=O)c1c(C)c2cnc(Nc3ccc(N4CCNCC4)cn3)nc2n(C2CCCC2)c1=O [palbociclib]	–	–	–	–	16.9	78.3
